Measured values as given in US20110263546A1, “Polyhydroxylated Bile Acids for Treatment of Biliary Disorders” (priority 2008, published 2011).
“Also recorded” adds a separate entry of the source. Like-named read-outs stand apart in the source and are kept apart here.

Columns and labels:
wild-type mice [1] = details: for Infusion dose tolerated without death (highest dosage tested) / MTD compared with that of UDC: wild-type mice, tail vein infusion
Description: The maximum tolerated dose of bile acid according to the invention was determined. This test is carried out in two ways. First, as a pilot experiment of bile duct cannulation, a bolus of bile acid was infused into mice under anesthesia to measure its acute toxicity to animals. The responses of mice such as breath rate, bile flow rate, histological changes by H&E staining and the like were recorded. […] Using this tolerance level as a reference point, the acute toxicity of the bile acid was determined.
Bile collected was used for HPLC analysis.

wild-type mice [2] = assay: Bile flow rate (BFR) by bile duct cannulation after tail vein infusion; format: in vivo, mouse; details: for Bile flow rate, UDC compared with THBAs at similar quantity: 65 μmol/kg body weight infusion; for Bile flow rate on infusion of increasing quantities: 65-400 μmol/kg BW (6β,7αTHBA), 65 and 200 μmol/kg BW (6α,7αTHBA)
Description: After 20 minutes of bile flow equilibration, bile was collected into pre-weighed tubes at 5-minute intervals for 10 minutes. A bolus of 3α,6α,7α,12α-tetrahydroxy-5β-cholan-24-oic acid (6α,7αTHBA, pH.7.4-7.6), 3α,6β,7α,12α-tetrahydroxy-5β-cholan-24-oic acid (6β,7αTHBA, pH.7.4-7.6), ursodeoxycholic acid (UDC, pH.7.4-7.6) or cholic acid (100 μmol/kg body weight) was then infused into the tail vein over a 20-second interval. Bile was then further collected through the cannula at 2-minute intervals for 10 or 20 minutes, followed by 10-minute intervals for 30 minutes. The bile flow rate was calculated by weighing the tubes containing the collected bile.

[3] = test system: TKO, bsep−/−, mdr1a/b−/− and wildtype mice; details: female TKO mice, 0.5% CA diet
Description: Mice were maintained in a 12-hour light and dark cycle, at 22° C., with free access to food and water. The mice were fed a normal diet except where specified otherwise in the results.
Chronic toxicity is tested by supplementing the diets of mice (wild-type as well as the hypersensitive bsep KO mice) with 0.1%-0.5% β-muricholate or bile acid according to the invention. Control feeding experiments use cholate as well as ursodeoxycholate.

[4] = test system: TKO, bsep−/−, mdr1a/b−/− and wildtype mice; details: 0.5% cholate diet, cited from earlier work
mice = details: cited from earlier work
[5] = mice, intravenous bolus (tail vein) infusion under anesthesia

| SMILES | Maximum tolerated dose (MTD) (wild-type mice [1]; [5]) | Infusion dose tolerated without death (highest dosage tested) (wild-type mice [1]) | MTD compared with that of UDC (wild-type mice [1]) | Bile flow rate, UDC compared with THBAs at similar quantity (wild-type mice [2]) | Bile flow rate on infusion of increasing quantities (wild-type mice [2]) | other results |
| --- | --- | --- | --- | --- | --- | --- |
| C[C@H](CCC(=O)O)[C@H]1CC[C@H]2[C@@H]3[C@H](O)[C@H](O)[C@@H]4C[C@H](O)CC[C@]4(C)[C@H]3C[C@H](O)[C@]12C [6α,7αTHBA, 3α,6α,7α,12α-tetrahydroxy-5β-cholan-24-oic acid] | > 400 μmol/kg of body weight | 400 μmol/kg of body weight | several times higher | similar | corresponding increase in bile flow rate | Effect on bile flow rate (BFR) (wild-type mice [2]; bolus 100 μmol/kg body weight into tail vein): stimulates bile flow rate; also recorded: promotes bile flow |
| C[C@H](CCC(=O)O)[C@H]1CC[C@H]2[C@@H]3[C@H](O)[C@@H](O)[C@@H]4C[C@H](O)CC[C@]4(C)[C@H]3C[C@H](O)[C@]12C [6β,7αTHBA, 3α,6β,7α,12α-tetrahydroxy-5β-cholan-24-oic acid] | > 500 μmol/kg of body weight | 500 μmol/kg of body weight | several times higher | similar | corresponding increase in bile flow rate |  |
| C[C@H](CCC(=O)O)[C@H]1CC[C@H]2[C@@H]3[C@H](O)C[C@@H]4C[C@H](O)CC[C@]4(C)[C@H]3C[C@H](O)[C@]12C [CA, 3α,7α,12α-trihydroxy-5β-cholan-24-oic acid] |  |  |  |  |  | Time until terminally ill or died [3]: 3 to 7 days; Time to death ([4]; female TKO mice): within a week; Time to death ([4]; male bsep KO mice): ≤ 10 days |
| C[C@H](CCC(=O)O)[C@H]1CC[C@H]2[C@@H]3[C@@H](O)C[C@@H]4C[C@H](O)CC[C@]4(C)[C@H]3CC[C@]12C [UDC, ursodeoxycholic acid, reference compound] |  |  |  |  |  | Infused dose that caused death (wild-type mice [1]; FVB/NJ, mouse, in vivo): ≥ 70 μmol/kg body weight; Maximum tolerated dose (MTD) (wild-type mice [1]; mouse, in vivo, iv): 65 μmol/kg of body weight; LD50 (mice; mouse, in vivo, iv): ~600 µmol/kg; Oral LD50 relative to intravenous LD50 (mice; rodents): at least 15 times |
